As a reminder, the IC50 is the midpoint of a concentration-inhibition curve. A higher IC50 goes with weaker potency.

Chain of USP1 (construct USP1 (I-785, GG670, 671AA)/UAF1 (I-677)-Flag) (O94782 whole entry G670A/G671A): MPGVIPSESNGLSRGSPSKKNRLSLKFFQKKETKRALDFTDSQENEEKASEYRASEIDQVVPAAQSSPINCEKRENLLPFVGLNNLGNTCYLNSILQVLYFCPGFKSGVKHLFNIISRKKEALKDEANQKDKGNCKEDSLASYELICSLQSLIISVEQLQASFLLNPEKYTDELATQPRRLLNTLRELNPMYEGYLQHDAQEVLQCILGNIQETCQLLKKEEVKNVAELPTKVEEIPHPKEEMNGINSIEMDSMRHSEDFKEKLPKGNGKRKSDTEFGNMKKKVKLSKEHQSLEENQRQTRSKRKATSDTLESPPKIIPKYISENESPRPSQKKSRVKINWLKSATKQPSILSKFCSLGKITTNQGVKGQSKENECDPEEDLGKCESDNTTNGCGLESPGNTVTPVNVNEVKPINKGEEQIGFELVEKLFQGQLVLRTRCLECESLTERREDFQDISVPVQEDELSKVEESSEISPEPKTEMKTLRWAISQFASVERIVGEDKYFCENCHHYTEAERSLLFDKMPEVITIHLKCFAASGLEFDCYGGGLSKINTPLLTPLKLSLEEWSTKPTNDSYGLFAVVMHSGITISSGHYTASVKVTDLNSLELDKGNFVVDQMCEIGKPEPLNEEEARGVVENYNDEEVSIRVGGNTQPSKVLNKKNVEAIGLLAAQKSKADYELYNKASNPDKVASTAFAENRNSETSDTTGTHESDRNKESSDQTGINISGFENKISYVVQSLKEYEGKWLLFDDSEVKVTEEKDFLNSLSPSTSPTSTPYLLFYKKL
Chain of USP1 (construct USP1 (I-785, GG670, 671AA)/UAF1 (I-677)-Flag) (Q8TAF3 whole entry partner): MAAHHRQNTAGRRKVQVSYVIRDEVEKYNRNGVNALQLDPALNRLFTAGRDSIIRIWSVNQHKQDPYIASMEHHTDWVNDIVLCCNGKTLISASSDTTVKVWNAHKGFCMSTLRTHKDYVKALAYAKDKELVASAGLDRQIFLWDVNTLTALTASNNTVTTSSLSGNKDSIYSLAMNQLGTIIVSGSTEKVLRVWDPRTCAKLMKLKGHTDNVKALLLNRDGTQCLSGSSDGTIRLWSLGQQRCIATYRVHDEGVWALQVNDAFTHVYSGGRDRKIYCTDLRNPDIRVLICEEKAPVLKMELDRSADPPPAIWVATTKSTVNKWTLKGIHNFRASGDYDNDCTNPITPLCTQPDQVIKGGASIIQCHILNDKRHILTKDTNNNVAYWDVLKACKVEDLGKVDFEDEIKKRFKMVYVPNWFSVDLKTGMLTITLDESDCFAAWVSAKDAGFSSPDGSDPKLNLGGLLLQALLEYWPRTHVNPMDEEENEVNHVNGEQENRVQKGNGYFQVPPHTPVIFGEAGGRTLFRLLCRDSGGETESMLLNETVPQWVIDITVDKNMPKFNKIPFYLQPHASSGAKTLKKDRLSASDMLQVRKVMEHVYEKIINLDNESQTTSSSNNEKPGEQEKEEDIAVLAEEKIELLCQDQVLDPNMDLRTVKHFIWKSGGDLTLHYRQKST

This assay has as its target USP1 (construct USP1 (I-785, GG670, 671AA)/UAF1 (I-677)-Flag) (Homo sapiens (Human), UniProt O94782, G670A/G671A). The experiment in a line: Ubiquitin-Rhodamine 110 assay for USP1 activity. Type of assay: biochemical. Particulars: USP1/UAF1 25 pM, Ub-Rh110 25 nM, 30 min preincubation. The essentials:
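Ub-Rh110 (25 nM, ≪Km) cleavage read at ex 485/em 535 in Tris pH 8.0, CaCl2, GSH, Prionex, Triton X-100. The screen used 10 µM compound, 100 pM USP1/UAF1 and 45 min at RT.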
For the compound `CC(C)c1ccccc1-c1ncc2[nH]c(=O)n(Cc3ccc(C(=O)N4C[C@@H](C)O[C@@H](C)C4)cc3)c2n1` [Compound I-385, 9-(4-((2R,6S)-2,6-dimethylmorpholine-4-carbonyl)benzyl)-2-(2-isopropylphenyl)-7,9-dihydro-8H-purin-8-one], the IC50 fell in the range of 50 to 200 nM. The result for `CC(C)c1ccccc1-c1ncc2c(n1)n(Cc1cccc(OCc3cncn3C)c1)c(=O)n2C` [Compound I-243, 2-(2-isopropylphenyl)-7-methyl-9-(3-((1-methyl-1H-imidazol-5-yl)methoxy)benzyl)-7,9-dihydro-8H-purin-8-one] reads 200 to 2000 nM; that for `CC(C)c1ccccc1-c1ncc2[nH]c(=O)n(Cc3ccc(-c4nc(Cl)cn4C)cc3)c2n1` [Compound I-198, 9-(4-(4-chloro-1-methyl-1H-imidazol-2-yl)benzyl)-2-(2-isopropylphenyl)-7,9-dihydro-8H-purin-8-one], < 50 nM. With `CC(C)c1ccccc1-c1ncc2c(n1)n(Cc1cccc(OCC3CC3)c1)c(=O)n2C` [Compound I-239, 9-(3-(cyclopropylmethoxy)benzyl)-2-(2-isopropylphenyl)-7-methyl-7,9-dihydro-8H-purin-8-one] the figure was > 2000 nM; with `CC(C)c1c(F)cccc1-c1ncc2[nH]c(=O)n(Cc3ccc(-n4nccn4)cc3)c2n1` [Compound I-166, 9-(4-(2H-1,2,3-triazol-2-yl)benzyl)-2-(3-fluoro-2-isopropylphenyl)-7,9-dihydro-8H-purin-8-one], 50 to 200 nM. With `Cc1cc(C(=O)N(C)C)nn1-c1ccc(Cn2c(=O)[nH]c3cnc(-c4ccccc4C4CC4)nc32)cc1` [Compound I-504, 1-(4-((2-(2-Cyclopropylphenyl)-8-oxo-7,8-dihydro-9H-purin-9-yl)methyl)phenyl)-N,N,5-trimethyl-1H-pyrazole-3-carboxamide] the figure was 50 to 200 nM; with `CC(C)c1ccccc1-c1ncc2[nH]c(=O)n(Cc3cnc(-n4cccn4)cn3)c2n1` [Compound I-508, 9-((5-(1H-Pyrazol-1-yl)pyrazin-2-yl)methyl)-2-(2-isopropylphenyl)-7,9-dihydro-8H-purin-8-one], > 2000 nM. For `CC(C)c1ccccc1-c1ncc2[nH]c(=O)n(Cc3ccc(-n4cc(C(C)(C)N)nn4)cc3)c2n1` [Compound I-338, 9-(4-(4-(2-aminopropan-2-yl)-1H-1,2,3-triazol-1-yl)benzyl)-2-(2-isopropylphenyl)-7,9-dihydro-8H-purin-8-one], the IC50 was > 2000 nM.

As for `CC(C)c1ccccc1-c1ncc2[nH]c(=O)n(Cc3ccc(-c4cccc(CCN(C)C)c4)cc3)c2n1` [Compound I-248, 9-((3′-(2-(dimethylamino)ethyl)-[1,1′-biphenyl]-4-yl)methyl)-2-(2-isopropylphenyl)-7,9-dihydro-8H-purin-8-one], the half-inhibitory concentration (IC50) was in the range of 200 to 2000 nM. The result for `CC(C)c1ccccc1-c1ncc2[nH]c(=O)n(CC3(F)CCN(S(=O)(=O)C4CC4)CC3)c2n1` [Compound I-460, 9-((1-(cyclopropylsulfonyl)-4-fluoropiperidin-4-yl)methyl)-2-(2-isopropylphenyl)-7,9-dihydro-8H-purin-8-one] reads 200 to 2000 nM; that for `CC(C)c1ncccc1-c1ncc2c(n1)n([C@H](C)c1ccc(-c3nc(C(F)(F)F)cn3C)cc1)c(=O)n2C` [Compound I-115, (R)-2-(2-isopropylpyridin-3-yl)-7-methyl-9-(1-(4-(1-methyl-4-(trifluoromethyl)-1H-imidazol-2-yl)phenyl)ethyl)-7,9-dihydro-8H-purin-8-one], < 50 nM; that for `CC(C)c1ccccc1-c1ncc2[nH]c(=O)n(Cc3ccc(C(=O)NCc4cnn(C)c4)cc3)c2n1` [Compound I-361, 4-((2-(2-isopropylphenyl)-8-oxo-7,8-dihydro-9H-purin-9-yl)methyl)-N-((1-methyl-1H-pyrazol-4-yl)methyl)benzamide], 200 to 2000 nM. Regarding `CC(=O)N1CCCC(c2ccn(-c3ccc(Cn4c(=O)[nH]c5cnc(-c6ccccc6C(C)C)nc54)cc3)n2)C1` (stereo not shown) [Compound I-468, 9-(4-(3-(1-acetylpiperidin-3-yl)-1H-pyrazol-1-yl)benzyl)-2-(2-isopropylphenyl)-7,9-dihydro-8H-purin-8-one], the IC50 was < 50 nM.

For `CCOC(=O)c1cc(C)nn1-c1ccc(Cn2c(=O)[nH]c3cnc(-c4ccccc4C4CC4)nc32)cc1` [Compound I-99, ethyl 1-(4-((2-(2-cyclopropylphenyl)-8-oxo-7,8-dihydro-9H-purin-9-yl)methyl)phenyl)-3-methyl-1H-pyrazole-5-carboxylate], the IC50 was < 50 nM. For `CC(C)c1ccccc1-c1ncc2[nH]c(=O)n(C3(c4ccc(F)cc4)CC3)c2n1` [Compound I-227, 9-(1-(4-fluorophenyl)cyclopropyl)-2-(2-isopropylphenyl)-7,9-dihydro-8H-purin-8-one], the IC50 was < 50 nM. With `CC(C)c1ccccc1-c1ncc2[nH]c(=O)n(Cc3ccc(-c4cn(CCO)nn4)cc3)c2n1` [Compound I-522, 9-(4-(1-(2-Hydroxyethyl)-1H-1,2,3-triazol-4-yl)benzyl)-2-(2-isopropylphenyl)-7,9-dihydro-8H-purin-8-one] the figure was 200 to 2000 nM; with `CC(C)c1ccccc1-c1ncc2c(n1)n(CC1CCN(S(=O)(=O)C(C)C)CC1)c(=O)n2C` [Compound I-450, 2-(2-isopropylphenyl)-9-((1-(isopropylsulfonyl)piperidin-4-yl)methyl)-7-methyl-7,9-dihydro-8H-purin-8-one], 50 to 200 nM. The result for `COc1cc(C)n(-c2ccc(Cn3c(=O)[nH]c4cnc(-c5cccnc5C(C)C)nc43)cc2)n1` [Compound I-78, 2-(2-isopropylpyridin-3-yl)-9-(4-(3-methoxy-5-methyl-1H-pyrazol-1-yl)benzyl)-7,9-dihydro-8H-purin-8-one] reads < 50 nM; that for `CC(C)c1ccccc1-c1ncc2c(n1)n(Cc1ccc(OCc3ccccn3)cc1)c(=O)n2C` [Compound I-231, 2-(2-isopropylphenyl)-7-methyl-9-(4-(pyridin-2-ylmethoxy)benzyl)-7,9-dihydro-8H-purin-8-one], < 50 nM. For the compound `CC(C)c1ccccc1-c1ncc2[nH]c(=O)n(Cc3ccc(-c4cn(C)cn4)cc3)c2n1` [Compound I-273, 2-(2-isopropylphenyl)-9-(4-(1-methyl-1H-imidazol-4-yl)benzyl)-7,9-dihydro-8H-purin-8-one], the IC50 was < 50 nM. The result for `Cn1cc(C(F)(F)F)nc1-c1ccc(Cn2c(=O)[nH]c3cnc(-c4cccc5cnn(C)c45)nc32)cc1` [Compound I-44, 2-(1-methyl-1H-indazol-7-yl)-9-(4-(1-methyl-4-(trifluoromethyl)-1H-imidazol-2-yl)benzyl)-7,9-dihydro-8H-purin-8-one] reads < 50 nM; that for `COC[C@@H](C)Nc1ncccc1-c1ncc2[nH]c(=O)n(Cc3ccc(-c4nc(C(F)(F)F)cn4C)cc3)c2n1` [Compound I-319, (R)-2-(2-((1-methoxypropan-2-yl)amino)pyridin-3-yl)-9-(4-(1-methyl-4-(trifluoromethyl)-1H-imidazol-2-yl)benzyl)-7,9-dihydro-8H-purin-8-one], 200 to 2000 nM. With `CC(C)c1ccccc1-c1ncc2[nH]c(=O)n(CC3CCN(S(=O)(=O)C4CC4)CC3)c2n1` [Compound I-461, 9-((1-(cyclopropylsulfonyl)piperidin-4-yl)methyl)-2-(2-isopropylphenyl)-7,9-dihydro-8H-purin-8-one] the figure was 50 to 200 nM; with `CCOc1ncccc1-c1ncc2[nH]c(=O)n(Cc3ccc(-c4nc(C(F)(F)F)cn4C)cc3)c2n1` [Compound I-421, 2-(2-ethoxypyridin-3-yl)-9-(4-(1-methyl-4-(trifluoromethyl)-1H-imidazol-2-yl)benzyl)-7,9-dihydro-8H-purin-8-one], < 50 nM. Turning to `CC(C)c1ccccc1-c1ncc2[nH]c(=O)n(Cc3ccc(-n4ccc(C#N)n4)cc3)c2n1` [Compound I-196, 1-(4-((2-(2-isopropylphenyl)-8-oxo-7,8-dihydro-9H-purin-9-yl)methyl)phenyl)-1H-pyrazole-3-carbonitrile], the IC50 was < 50 nM. `CC(C)c1ccc(F)cc1-c1ncc2c(n1)n(Cc1ccc(-n3cccn3)cc1)c(=O)n2C` [Compound I-9, 9-(4-(1H-pyrazol-1-yl)benzyl)-2-(5-fluoro-2-isopropylphenyl)-7-methyl-7,9-dihydro-8H-purin-8-one] registered an IC50 of 200 to 2000 nM. For the compound `CC(C)c1ccccc1-c1ncc2[nH]c(=O)n(Cc3ccc(C(=O)N(C)C(C)C)cc3)c2n1` [Compound I-375, N-isopropyl-4-((2-(2-isopropylphenyl)-8-oxo-7,8-dihydro-9H-purin-9-yl)methyl)-N-methylbenzamide], the IC50 was < 50 nM. With `CCOCCOc1ncccc1-c1ncc2[nH]c(=O)n(Cc3ccc(-c4nc(C(F)(F)F)cn4C)cc3)c2n1` [Compound I-415, 2-(2-(2-ethoxyethoxy)pyridin-3-yl)-9-(4-(1-methyl-4-(trifluoromethyl)-1H-imidazol-2-yl)benzyl)-7,9-dihydro-8H-purin-8-one] the figure was < 50 nM; with `COC(=O)N1CCC(c2ccn(-c3ccc(Cn4c(=O)[nH]c5cnc(-c6ccccc6C(C)C)nc54)cc3)n2)CC1` [Compound I-543, Methyl 4-(1-(4-((2-(2-isopropylphenyl)-8-oxo-7,8-dihydro-9H-purin-9-yl)methyl)phenyl)-1H-pyrazol-3-yl)piperidine-1-carboxylate], < 50 nM; with `O=c1[nH]c2cnc(-c3cccc4c3OC(F)(F)O4)nc2n1Cc1ccc(-n2cccn2)cc1` [Compound I-25, 9-(4-(1H-pyrazol-1-yl)benzyl)-2-(2,2-difluorobenzo[d][1,3]dioxol-4-yl)-7,9-dihydro-8H-purin-8-one], 50 to 200 nM. With `CC(C)c1ncccc1-c1ncc2[nH]c(=O)n(Cc3ccc(-c4nc(C(F)(F)F)cn4C4COC4)cc3)c2n1` [Compound I-32, 2-(2-isopropylpyridin-3-yl)-9-(4-(1-(oxetan-3-yl)-4-(trifluoromethyl)-1H-imidazol-2-yl)benzyl)-7,9-dihydro-8H-purin-8-one] the figure was 50 to 200 nM.

The record behind these values is patent US10189841B2, “Purinones as ubiquitin-specific protease 1 inhibitors” (Forma Therapeutics, Inc., priority 2015, dated 2019).
